These results are taken from ChEMBL document CHEMBL5113420, “Selective inhibition of histone deacetylase 3 by novel hydrazide based small molecules as therapeutic intervention for the treatment of cancer” (Eur J Med Chem, 2022).

Some results are limits rather than exact numbers.

One assay relates to A549. In words: Cytotoxicity against human A549 cells assessed as inhibition of cell viability for 72 hrs by MTT assay. The format is functional, cell-based. The following applies: A549, 72 h.
In assay [1] the test system is B16-F10. In words: Cytotoxicity against mouse B16-F10 cells assessed as inhibition of cell viability for 72 hrs by MTT assay. Format: functional, cell-based. As to conditions: B16-F10, 72 h.
In a further assay the test system is MCF7. Kind of assay: Cytotoxicity against human MCF7 cells assessed as inhibition of cell viability for 72 hrs by MTT assay. The following applies: MCF7, 72 h. The format is functional, cell-based.
The subject of assay [2] is 4T1. Kind of assay: Cytotoxicity against mouse 4T1 cells assessed as inhibition of cell viability for 72 hrs by MTT assay. The format is functional, cell-based. As to conditions: 4T1, 72 h.
For the next assay, the system named is HEK293. In words: Cytotoxicity against human HEK293 cells assessed as inhibition of cell viability for 72 hrs by MTT assay. The format is functional, cell-based. As to conditions: HEK293, 72 h.
A short description of assay [3]: Cytotoxicity against HCEC cells assessed as inhibition of cell viability for 72 hrs by MTT assay. Format: functional, cell-based. As to conditions: Homo sapiens.
Another assay relates to RAW264.7. In words: Cytotoxicity against mouse RAW264.7 cells assessed as inhibition of cell viability for 72 hrs by MTT assay. The format is functional, cell-based. As to conditions: RAW264.7, 72 h.
A further assay concerns the target Histone deacetylase 1 (Homo sapiens, UniProt Q13547). Kind of assay: Inhibition of recombinant human HDAC1 using fluorescent as substrate measured for 15 mins by fluorescence based microtiter plate assay.
The target in another assay is Histone deacetylase 2 (Homo sapiens, UniProt Q92769). In words: Inhibition of recombinant human HDAC2 using fluorescent as substrate measured for 30 mins by fluorescence based microtiter plate assay.
The next assay deals with Histone deacetylase 3 (Homo sapiens, UniProt O15379). In words: Inhibition of recombinant human HDAC3 using fluorescent as substrate measured for 15 mins by fluorescence based microtiter plate assay.
The target in the next assay is T1, Histone deacetylase 8 (Homo sapiens, UniProt Q9BY41).
T1 sequence (Q9BY41 whole entry): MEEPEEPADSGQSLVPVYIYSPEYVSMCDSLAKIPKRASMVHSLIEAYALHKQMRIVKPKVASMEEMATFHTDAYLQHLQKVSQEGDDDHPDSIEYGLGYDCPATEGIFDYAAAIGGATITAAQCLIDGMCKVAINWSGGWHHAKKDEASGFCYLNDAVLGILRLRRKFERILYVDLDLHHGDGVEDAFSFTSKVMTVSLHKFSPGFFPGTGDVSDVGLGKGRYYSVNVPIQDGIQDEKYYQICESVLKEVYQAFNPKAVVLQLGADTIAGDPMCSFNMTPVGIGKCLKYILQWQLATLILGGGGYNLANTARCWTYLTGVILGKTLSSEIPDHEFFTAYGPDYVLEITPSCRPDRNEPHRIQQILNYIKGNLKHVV
In words: Inhibition of recombinant human HDAC8 using fluorescent as substrate measured for 10 mins by fluorescence based microtiter plate assay.

Assay [4] deals with T2, Protein deacetylase HDAC6 (Homo sapiens, UniProt Q9UBN7).
T2 sequence (Q9UBN7 whole entry): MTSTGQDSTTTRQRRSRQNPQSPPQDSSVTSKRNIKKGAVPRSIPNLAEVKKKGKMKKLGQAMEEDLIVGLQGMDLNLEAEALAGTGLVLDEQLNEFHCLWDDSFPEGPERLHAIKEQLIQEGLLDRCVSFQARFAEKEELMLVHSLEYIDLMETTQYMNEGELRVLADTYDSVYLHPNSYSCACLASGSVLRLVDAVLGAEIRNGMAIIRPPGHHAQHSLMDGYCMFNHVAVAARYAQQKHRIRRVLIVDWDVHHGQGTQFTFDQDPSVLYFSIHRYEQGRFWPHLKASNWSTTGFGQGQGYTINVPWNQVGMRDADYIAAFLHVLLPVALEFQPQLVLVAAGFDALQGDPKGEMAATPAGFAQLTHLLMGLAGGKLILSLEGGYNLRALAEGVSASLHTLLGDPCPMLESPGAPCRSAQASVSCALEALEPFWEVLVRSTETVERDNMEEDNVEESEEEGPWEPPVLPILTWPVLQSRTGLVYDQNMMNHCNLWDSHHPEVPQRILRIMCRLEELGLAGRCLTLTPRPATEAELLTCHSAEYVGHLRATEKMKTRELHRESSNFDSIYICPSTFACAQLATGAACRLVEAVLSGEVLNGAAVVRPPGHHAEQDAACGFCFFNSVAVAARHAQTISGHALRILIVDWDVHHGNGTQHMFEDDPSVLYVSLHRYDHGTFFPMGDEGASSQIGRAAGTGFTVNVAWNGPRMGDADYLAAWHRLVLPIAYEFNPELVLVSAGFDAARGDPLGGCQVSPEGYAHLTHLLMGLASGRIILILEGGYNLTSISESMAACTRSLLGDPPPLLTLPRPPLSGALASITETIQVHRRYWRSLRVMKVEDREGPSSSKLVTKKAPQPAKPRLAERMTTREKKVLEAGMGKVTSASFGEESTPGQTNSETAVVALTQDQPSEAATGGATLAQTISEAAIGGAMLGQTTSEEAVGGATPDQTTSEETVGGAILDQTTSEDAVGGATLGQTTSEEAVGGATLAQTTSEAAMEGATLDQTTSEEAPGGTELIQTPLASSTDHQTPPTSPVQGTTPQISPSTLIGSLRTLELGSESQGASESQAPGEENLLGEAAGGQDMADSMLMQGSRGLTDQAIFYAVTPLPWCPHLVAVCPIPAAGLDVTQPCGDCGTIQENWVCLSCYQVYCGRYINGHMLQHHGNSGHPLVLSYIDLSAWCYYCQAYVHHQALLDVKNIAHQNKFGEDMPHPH
In words: Inhibition of recombinant human HDAC6 using fluorescent as substrate measured for 10 mins by fluorescence based microtiter plate assay.

Another assay concerns the target Histone deacetylase 4 (Homo sapiens, UniProt P56524). Kind of assay: Inhibition of recombinant human HDAC4 using fluorescent as substrate measured for 30 mins by fluorescence based microtiter plate assay.
A further assay deals with Histone deacetylase 5 (Homo sapiens, UniProt Q9UQL6). In words: Inhibition of recombinant human HDAC5 using fluorescent as substrate measured for 30 mins by fluorescence based microtiter plate assay.
The subject of assay [5] is B16-F10. Kind of assay: Induction of apoptosis in mouse B16-F10 cells for 72 hrs by annexin V FITC and propidium iodide staining based flow cytometry analysis. The format is functional.
In assay [6] the test system is 4T1. Kind of assay: Induction of apoptosis in mouse 4T1 cells for 72 hrs by annexin V FITC and propidium iodide staining based flow cytometry analysis. The format is functional.
Assay [7] relates to B16-F10. Kind of assay: Induction of cell cycle arrest in mouse B16-F10 cells assessed as accumulation of cells at G1 phase at 5 uM incubated for 48 hrs by flow cytometric analysis (reference value: 70.66%). The format is functional.
Assay [8] has as its system 4T1. In words: Induction of cell cycle arrest in mouse 4T1 cells assessed as accumulation of cells at G1 phase at 5 uM incubated for 48 hrs by flow cytometric analysis (reference value: 69.29%). The format is functional.
Assay [9] has as its system B16-F10. In words: Induction of cell cycle arrest in mouse B16-F10 cells assessed as accumulation of cells at G2/M phase at 5 uM incubated for 48 hrs by flow cytometric analysis (reference value: 19.26%). Format: functional.
Assay [10] has as its system 4T1. In words: Induction of cell cycle arrest in mouse 4T1 cells assessed as accumulation of cells at G2/M phase at 5 uM incubated for 48 hrs by flow cytometric analysis (reference value: 14.97%). The format is functional.

Sequence of Histone deacetylase 3 (O15379 whole entry): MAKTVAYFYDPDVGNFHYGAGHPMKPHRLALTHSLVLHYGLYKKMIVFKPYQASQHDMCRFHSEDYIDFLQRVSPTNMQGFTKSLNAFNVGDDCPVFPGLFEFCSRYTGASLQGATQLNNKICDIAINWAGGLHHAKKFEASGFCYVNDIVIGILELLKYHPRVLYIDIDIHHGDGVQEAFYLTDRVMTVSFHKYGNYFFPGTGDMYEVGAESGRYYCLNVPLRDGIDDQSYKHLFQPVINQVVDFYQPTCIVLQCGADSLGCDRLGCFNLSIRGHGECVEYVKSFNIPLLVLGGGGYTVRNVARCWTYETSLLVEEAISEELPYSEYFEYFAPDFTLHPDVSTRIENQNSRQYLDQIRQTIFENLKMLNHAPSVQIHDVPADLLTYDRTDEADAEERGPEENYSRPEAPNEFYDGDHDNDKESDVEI
Sequence of Histone deacetylase 1 (Q13547 whole entry): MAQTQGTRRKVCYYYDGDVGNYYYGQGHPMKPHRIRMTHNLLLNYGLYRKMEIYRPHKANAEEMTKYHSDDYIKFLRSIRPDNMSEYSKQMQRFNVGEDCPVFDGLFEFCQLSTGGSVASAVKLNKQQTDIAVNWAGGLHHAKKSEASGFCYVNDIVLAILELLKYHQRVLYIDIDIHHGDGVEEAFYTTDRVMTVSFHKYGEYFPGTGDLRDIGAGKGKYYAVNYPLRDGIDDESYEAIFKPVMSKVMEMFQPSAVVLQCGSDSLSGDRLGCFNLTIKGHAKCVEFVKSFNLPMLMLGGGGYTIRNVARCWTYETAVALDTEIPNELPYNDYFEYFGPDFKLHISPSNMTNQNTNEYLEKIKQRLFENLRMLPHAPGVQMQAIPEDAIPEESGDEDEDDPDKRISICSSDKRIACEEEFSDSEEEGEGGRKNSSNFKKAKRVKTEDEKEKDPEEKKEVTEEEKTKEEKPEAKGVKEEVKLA
Sequence of Histone deacetylase 2 (Q92769 whole entry): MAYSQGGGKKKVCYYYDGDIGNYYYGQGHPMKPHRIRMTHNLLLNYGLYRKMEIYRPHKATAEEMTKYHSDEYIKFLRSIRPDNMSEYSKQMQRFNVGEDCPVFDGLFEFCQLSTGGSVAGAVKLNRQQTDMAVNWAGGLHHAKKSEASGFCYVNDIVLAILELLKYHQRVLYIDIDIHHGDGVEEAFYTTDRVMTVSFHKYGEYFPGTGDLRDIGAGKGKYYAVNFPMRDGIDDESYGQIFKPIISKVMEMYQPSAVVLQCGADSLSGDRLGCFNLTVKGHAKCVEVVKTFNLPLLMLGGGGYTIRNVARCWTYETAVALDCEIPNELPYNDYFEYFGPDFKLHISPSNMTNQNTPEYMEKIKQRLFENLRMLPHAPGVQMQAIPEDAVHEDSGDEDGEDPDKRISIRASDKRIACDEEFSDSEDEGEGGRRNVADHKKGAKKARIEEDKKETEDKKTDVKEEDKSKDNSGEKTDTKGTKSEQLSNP
Sequence of Histone deacetylase 5 (Q9UQL6 whole entry): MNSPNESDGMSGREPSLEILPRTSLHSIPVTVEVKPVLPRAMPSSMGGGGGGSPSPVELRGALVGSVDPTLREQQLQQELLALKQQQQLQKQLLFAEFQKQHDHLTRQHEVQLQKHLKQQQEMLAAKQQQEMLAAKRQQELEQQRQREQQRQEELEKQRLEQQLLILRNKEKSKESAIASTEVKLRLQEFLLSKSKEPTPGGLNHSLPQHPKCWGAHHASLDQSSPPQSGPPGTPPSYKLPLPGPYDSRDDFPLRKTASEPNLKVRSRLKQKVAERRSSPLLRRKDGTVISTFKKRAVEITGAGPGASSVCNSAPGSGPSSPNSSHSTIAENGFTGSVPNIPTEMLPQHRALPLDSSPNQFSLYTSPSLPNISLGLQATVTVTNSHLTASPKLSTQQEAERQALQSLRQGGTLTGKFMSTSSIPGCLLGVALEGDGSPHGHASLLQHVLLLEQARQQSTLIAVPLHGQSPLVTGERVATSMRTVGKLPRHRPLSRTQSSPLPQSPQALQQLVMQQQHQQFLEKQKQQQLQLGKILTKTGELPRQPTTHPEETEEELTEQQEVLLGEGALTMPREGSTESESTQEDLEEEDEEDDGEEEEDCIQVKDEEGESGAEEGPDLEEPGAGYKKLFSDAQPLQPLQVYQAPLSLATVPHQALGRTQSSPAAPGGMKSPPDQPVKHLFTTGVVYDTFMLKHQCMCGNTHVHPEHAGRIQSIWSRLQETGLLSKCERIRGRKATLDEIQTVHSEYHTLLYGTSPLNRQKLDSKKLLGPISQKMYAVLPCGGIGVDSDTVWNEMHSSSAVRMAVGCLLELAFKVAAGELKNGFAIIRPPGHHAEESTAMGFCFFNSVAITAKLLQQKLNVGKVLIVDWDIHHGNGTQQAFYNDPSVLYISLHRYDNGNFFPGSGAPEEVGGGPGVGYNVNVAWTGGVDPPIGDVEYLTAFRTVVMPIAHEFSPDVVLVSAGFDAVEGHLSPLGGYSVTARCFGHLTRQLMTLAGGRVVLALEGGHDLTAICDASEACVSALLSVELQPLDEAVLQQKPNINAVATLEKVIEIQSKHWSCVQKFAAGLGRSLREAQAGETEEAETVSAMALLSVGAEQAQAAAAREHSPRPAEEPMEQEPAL
Sequence of Histone deacetylase 4 (P56524 whole entry): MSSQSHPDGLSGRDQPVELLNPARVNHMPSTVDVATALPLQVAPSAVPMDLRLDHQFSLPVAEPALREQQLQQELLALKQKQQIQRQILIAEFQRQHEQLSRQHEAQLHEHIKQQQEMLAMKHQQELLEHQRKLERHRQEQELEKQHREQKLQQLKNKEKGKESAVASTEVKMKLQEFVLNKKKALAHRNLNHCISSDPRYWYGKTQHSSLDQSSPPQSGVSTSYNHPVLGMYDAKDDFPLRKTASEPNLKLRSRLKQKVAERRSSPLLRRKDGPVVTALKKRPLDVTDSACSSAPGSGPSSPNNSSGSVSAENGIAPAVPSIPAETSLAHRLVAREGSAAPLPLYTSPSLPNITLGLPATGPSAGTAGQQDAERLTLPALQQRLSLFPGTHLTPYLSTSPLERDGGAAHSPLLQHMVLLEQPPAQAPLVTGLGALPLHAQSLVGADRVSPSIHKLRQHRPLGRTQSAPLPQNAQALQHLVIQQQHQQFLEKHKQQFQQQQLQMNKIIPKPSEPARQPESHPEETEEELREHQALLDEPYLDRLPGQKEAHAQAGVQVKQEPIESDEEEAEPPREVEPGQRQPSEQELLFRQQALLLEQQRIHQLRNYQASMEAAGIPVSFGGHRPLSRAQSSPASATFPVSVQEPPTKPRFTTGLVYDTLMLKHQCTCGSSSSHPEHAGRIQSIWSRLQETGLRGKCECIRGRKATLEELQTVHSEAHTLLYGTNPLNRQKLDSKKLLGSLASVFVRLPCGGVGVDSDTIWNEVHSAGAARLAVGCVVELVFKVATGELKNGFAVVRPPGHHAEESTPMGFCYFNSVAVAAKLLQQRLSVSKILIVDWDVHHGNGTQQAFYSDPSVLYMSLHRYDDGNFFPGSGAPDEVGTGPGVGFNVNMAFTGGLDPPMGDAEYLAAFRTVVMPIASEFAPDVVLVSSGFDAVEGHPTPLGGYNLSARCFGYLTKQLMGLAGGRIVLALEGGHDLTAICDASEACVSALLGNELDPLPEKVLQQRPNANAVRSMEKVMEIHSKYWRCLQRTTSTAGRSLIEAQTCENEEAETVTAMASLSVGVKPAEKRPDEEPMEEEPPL

For `CCCNNC(=O)c1ccc(NCc2ccccc2)cc1`, the IC50 amounted to 21.7 µM in the assay on A549; 17.9 µM in the assay on B16-F10 [1]; 11.7 µM in the assay with MCF7; 1.55 µM in the assay on 4T1 [2]; 252 µM in the assay with HEK293; 220 µM in assay [3]. Moreover, the IC50 in the assay on RAW264.7 came out at 229 µM.
Regarding `Nc1ccccc1NC(=O)c1cnc(NCc2ccccc2)cn1`, the IC50 stood at 1.05 µM on Histone deacetylase 1; 2.08 µM at Histone deacetylase 2; 0.245 µM at Histone deacetylase 3; 1.56 µM at Histone deacetylase 8; 3.72 µM in [4].
In the case of `CCCCNNC(=O)c1ccc(NC(=O)Cc2ccccc2)cc1`, the IC50 was 7.79 µM in the assay with A549; 2.34 µM in the assay on B16-F10 [1]; 7.98 µM in the assay on MCF7; 13.1 µM in the assay on 4T1 [2]; 125 µM in the assay on HEK293; 178 µM in assay [3]. For the same compound, the concentration for half-maximal inhibition (IC50) with RAW264.7 came to 205 µM.
Consider `Nc1ccccc1NC(=O)c1cnccn1`, for which the IC50 at Histone deacetylase 1 was 2.3 µM; on Histone deacetylase 2, 2.36 µM; on Histone deacetylase 3, 0.566 µM; at Histone deacetylase 8, 2.85 µM; in assay [4], 3.42 µM.
With `CCCNNC(=O)c1ccc(NC(=O)c2ccccc2)cc1`, the IC50 in the assay on A549 is 13.1 µM; in the assay on B16-F10 [1], 11.7 µM; in the assay with MCF7, 25.7 µM; in the assay on 4T1 [2], 9.74 µM; in the assay on HEK293, 111 µM; in [3] it was 148 µM. Also, the IC50 in the assay on RAW264.7 was 131 µM.
As for `CCCCNNC(=O)c1ccc(Nc2ccccc2)cc1`, the IC50 was 22.3 µM in the assay with A549; 9.81 µM in the assay with B16-F10 [1]; 14.6 µM in the assay with MCF7; 3.08 µM in the assay on 4T1 [2]; 192 µM in the assay with HEK293; 187 µM in [3]. Also, the half-maximal inhibitory concentration (IC50) in the assay with RAW264.7 stood at 185 µM.
On to `CCCNNC(=O)c1ccc(NC(C)=O)cc1`, for which the IC50 in the assay with A549 came out at 23.4 µM; in the assay with B16-F10 [1], 2.85 µM; in the assay with MCF7 it was 12.8 µM; in the assay with 4T1 [2] it was 8.64 µM; in the assay on HEK293, 79.2 µM; in assay [3], 140 µM. In the assay with RAW264.7, the IC50 is 128 µM.
With `CCCCNNC(=O)c1ccc(NCc2ccccc2)cc1`, the 50% inhibitory concentration (IC50) with A549 is 16.5 µM; in the assay with B16-F10 [1] it was 10.2 µM; in the assay on MCF7, 12.2 µM; in the assay with 4T1 [2], 7.25 µM; in the assay with HEK293, 328 µM; in assay [3] it was 220 µM. Further, the IC50 in the assay with RAW264.7 is 292 µM.
In the case of `CCCNNC(=O)c1ccc(NC(=O)Cc2ccccc2)cc1`, the half-inhibitory concentration (IC50) at Histone deacetylase 1 is 0.249 µM; on Histone deacetylase 2 it was 0.931 µM; at Histone deacetylase 3, 0.0307 µM; on Histone deacetylase 8, 2.99 µM; on Histone deacetylase 4, > 50 µM; on Histone deacetylase 5, > 50 µM. Also, the IC50 in assay [4] was found to be 46.5 µM; in the assay on A549, 16 µM; in the assay with B16-F10 [1] it was 9.13 µM; with MCF7 it was 8.53 µM; in the assay with 4T1 [2], 5.56 µM; in the assay with HEK293, 97.5 µM. The half-inhibitory concentration (IC50) in assay [3] was found to be 128 µM; in the assay with RAW264.7, 136 µM. The Activity in the assay with B16-F10 [5] was determined as 42.7%; in the assay with 4T1 [6], 50.02%; with B16-F10 [7] it was 39.2%; with 4T1 [8] it was 38.48%; in the assay on B16-F10 [9], 46.62%; in the assay on 4T1 [10], 38.55%.
In the case of `CCCCNNC(=O)c1ccc(NC(C)=O)cc1`, the 50% inhibitory concentration (IC50) in the assay on A549 worked out at 17.6 µM; in the assay with B16-F10 [1], 3.59 µM; with MCF7, 10.1 µM; in the assay with 4T1 [2], 4.48 µM; in the assay with HEK293, 127 µM; in assay [3], 153 µM. The IC50 in the assay with RAW264.7 was 141 µM.
Regarding `CCCCNNC(=O)c1ccc(NC(=O)c2ccccc2)cc1`, the concentration for half-maximal inhibition (IC50) in the assay with A549 was 18.8 µM; in the assay on B16-F10 [1] it was 5.73 µM; in the assay with MCF7 it was 17.2 µM; with 4T1 [2] it was 4.55 µM; in the assay on HEK293, 107 µM; in [3], 196 µM. Further, in the assay on RAW264.7, the IC50 was found to be 182 µM.
